In the METLIN SMRT retention time set (Domingo-Almenara et al. 2019):

test: gradient 5% acetonitrile 3 min, to 50% in 2 min, to 85% in 15 min, held 3 min, 100 µL/min; details: column: Zorbax Extend-C18 2.1 x 50 mm; eluents: water / acetonitrile, 0.1% formic acid
How it was run: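 Each retention time is based on an adduct peak selected computationally and verified by manual inspection. Measurements used HPLC–quadrupole time-of-flight mass spectrometry in positive and negative ionization mode on mixtures of ~100 pure standards. Chromatography ran on a Zorbax Extend-C18 column (2.1 × 50 mm, 1.8 μm) at 100 μL/min with water and acetonitrile, each containing 0.1% formic acid, and dead and dwell volumes of 40 μL and 900 μL.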

SMILES	RP-LC retention time
COC(=O)c1cc(S(=O)(=O)N2CCCC2C(=O)NCc2ccccc2)cn1C (stereo not drawn)	781 s
CN(C)C(CNC(=O)c1ccc(Br)o1)c1cn(C)c2ccccc12 (stereo not drawn)	578 s
CCc1nn2c(CNC(=O)c3ccoc3)c(-c3ccccc3)nc2s1	808 s
COc1ccccc1Cc1noc(C2CN(C(=O)c3ccc4nsnc4c3)C2)n1	814 s
CCCN1C(=O)C(CC(=O)N2CCCC2)Sc2ncccc21 (stereo not drawn)	691 s
Cc1ccc(NC(=O)c2ccc(CN3CCN(C)CC3)cc2)cc1Nc1nc(-c2cccnc2)cs1	618 s
COc1ccc(-c2nnc(-c3ccc(C)c(S(=O)(=O)NC(C)(C)CO)c3)o2)cc1OC	749 s
CCc1nnsc1C(=O)Nc1ccc(S(=O)(=O)Nc2onc(C)c2C)cc1	759 s
COc1ccc(-c2nc(N3CCCCC3)ncc2C(=O)O)cc1	923 s
COc1nn(C)cc1C(=O)NCc1ccco1	599 s
Cc1ccccc1NC(=O)C1CCCN(c2ncnc3c2nc2n3CCCCC2)C1 (stereo not drawn)	766 s
O=C(Nc1ccc(F)cc1)C(=O)c1ccc[nH]1	821 s
Cc1cc(C)n2c(Nc3ccccc3C)c(-c3ccccc3)nc2n1	728 s
COc1cccc(-c2nc(C3CCN(S(=O)(=O)c4ccc5c(c4)CCC5)CC3)no2)c1	1220 s
Cc1cc(OCC(=O)Nc2cccc(C)c2C)nc(N2CCN(c3ccccc3)CC2)n1	885 s
COC(=O)c1ccc(CN2CCN(c3cnn4cnnc4c3)CC2)cc1	548 s
COc1cc(NC(=O)Cn2ccc3ccc(-c4nnc(C)o4)cc32)cc(OC)c1OC	726 s
O=C(Nc1ccc(Br)cc1F)Nc1c(-c2ccc(F)cc2)nc2ccccn12	744 s
CCOC(=O)c1c(C)[nH]c(C(=O)N2CCC(C(C)C(=O)NCc3ccc(F)cc3Cl)CC2)c1C (stereo not drawn)	863 s
CC(C)c1nncn1C1CCN(S(=O)(=O)Cc2cccc(Cl)c2)CC1	736 s
Cc1nnc(-c2ccc3ccn(CC(=O)NCc4ccc(F)cc4)c3c2)o1	760 s
CCCc1cc(N2CCN(C(=O)c3ccco3)CC2)nc2nnc(C)n12	868 s
CCS(=O)(=O)N1CC(=O)N(c2cc(C)cc(C)c2)C(C)(C(=O)NCc2ccccc2)C1 (stereo not drawn)	868 s
O=C(NCc1ccc(N2CCCCC2)cc1)c1cn2c(n1)CSCC2	577 s
O=C(CSc1ncnc2c1nnn2Cc1ccc(F)cc1)N1CCCC1	764 s

SMILES	RP-LC retention time
O=C(Nc1ccc(F)c(Cl)c1)c1cn2c(n1)CSCC2	807 s
Cc1cc(C(=O)N2CCN(c3ccccc3Cl)CC2)nc2ccnn12	875 s
Cc1ccc(-c2cc(C(=O)NCCC3=CCCCC3)c(C)[nH]2)cc1C	1120 s
Cc1ccc2ncn(C3CCN(S(=O)(=O)c4ccccc4F)CC3)c(=O)c2c1	940 s
CCOc1ncccc1CNC(=O)Cc1ccsc1	771 s
COc1ccc(-n2ccc(=O)c(-c3nc(-c4ccc(F)c(Cl)c4)no3)n2)cc1	966 s
CCCC(=O)N1CCC(C(=O)Nc2ccc(OCC)cc2)CC1	718 s
Cc1nn(CC(=O)N(C)Cc2ccccc2)c(=O)c2nc(-c3ccccc3)sc12	942 s
COC1CC2C=C(C)/C=C/C=C/C(=O)NC(c3ccccc3)C/C=C/CCC(O)CC(=O)C2=C1O (stereo not drawn)	977 s
CCN1C=C(C(=O)OCc2cc(F)ccc2F)C(C)=NS1(=O)=O	975 s
COc1ccccc1N1CCN(C(=O)CCc2nnc3c4cc(-c5ccccc5)nn4ccn23)CC1	763 s
CCOc1ccc(C2Cn3nnc(-c4nc(-c5ccccc5Cl)no4)c3CO2)cc1 (stereo not drawn)	1150 s
Cc1sc(C)c(S(=O)(=O)Nc2ccc3c(c2)OCCO3)c1-c1cc(C(F)(F)F)on1	1070 s
CCc1ccc(NC(=O)Cn2c(N3CCCCC3)nc(C)cc2=O)cc1	661 s
CCOc1ccc(-c2nc(Cc3noc(-c4ccncc4)n3)c(C)o2)cc1	1010 s
CCOc1cccc(-c2noc(Cn3nc(-c4ccc(OC)cc4)ccc3=O)n2)c1	1030 s
CCc1nn2c(CNS(=O)(=O)c3ccc(F)c(C)c3)c(-c3ccccc3)nc2s1	974 s
COc1cn(CC(=O)NCc2ccccc2Cl)c(CO)cc1=O	564 s
CCOC(=O)c1ccc(NC(=O)N2CCC(CN3CCOCC3)CC2)cc1	610 s
O=C(Nc1ccccc1Br)c1c(O)c2cccc3c2n(c1=O)CC3	1240 s
COc1ccccc1-c1noc(-c2nn(-c3ccc(F)c(F)c3)ccc2=O)n1	807 s
Cc1cc(C2CCCN2C(=O)Cc2ccc(Cl)cc2)no1 (stereo not drawn)	824 s
COc1ccccc1NC(=O)C1CCCN(c2nc3ccccc3nc2OC)C1 (stereo not drawn)	1160 s
Cc1ccc(CNC(=O)c2nnc(-c3ccc(S(=O)(=O)N4CCC(C)CC4)cc3)o2)cc1	1100 s
O=C(CCn1c(=O)oc2ccccc21)NCc1ccc2c(c1)OCO2	941 s

Next, values leading:

RP-LC retention time	SMILES
859 s	CCc1ccc(S(=O)(=O)N2CCC(N3CCN(Cc4ccccc4)C(=O)C3=O)CC2)cc1
698 s	Cc1c(N2CCN(C(=O)c3cccc(F)c3)CC2)c(=O)n(C)c(=O)n1C
1130 s	COc1ccc(-c2ncc3c(=O)n(Cc4cccc(OC)c4)c(=O)n(C)c3n2)cc1
738 s	Cc1cc2c(N3CCCC(C(=O)NCc4ccccc4C(F)(F)F)C3)nccc2s1 (stereo not drawn)
794 s	Cc1ccc(-c2ccc3nnc(CCC(=O)NCc4ccccc4C(F)(F)F)n3n2)cc1
934 s	COc1ccc2c(c1)OC1(C)CC2C(S(=O)(=O)c2ccc(C)c(C)c2)C(=O)N1 (stereo not drawn)
1200 s	CCCN1C(=O)COc2ccc(-c3noc(-c4cccc(F)c4)n3)cc21
859 s	Cc1nc(S(=O)(=O)N2CCC(C(=O)N3CCN(c4ccc(Cl)cc4)CC3)CC2)cn1C
736 s	C=CCNC(=O)N1CCCN(C2=NS(=O)(=O)C(c3ccc(F)cc3)=C2C)CC1
1210 s	O=S(=O)(NCCc1ccccc1)c1ccccc1-c1nc(-c2ccccc2)no1
1080 s	O=S(=O)(NC1CCCCCC1)c1ccc(-c2nnc(C3CCCC3)o2)o1
620 s	O=C(NCc1ccco1)C1CCN(c2cc(N3CCSCC3)ncn2)CC1
702 s	CNC(=O)c1nc(-c2ccc(C)cc2)n2c1CCCCC2
978 s	Cc1cc(C)c(S(=O)(=O)N2CC(c3nc(-c4ccncc4)no3)C2)c(C)c1
727 s	Cc1onc(-c2c(F)cccc2Cl)c1C(=O)N1CCOCC1
736 s	O=C(NCc1ccc2c(c1)OCO2)c1ccc(OCC(=O)C2CC2)cc1
736 s	O=C(CCSc1ccccc1)NCCOc1ccc2nnc(-c3ccccc3)n2n1
581 s	O=C(NCc1nc(-c2ccccc2)no1)C1CCN(Cc2nc3ccccc3[nH]2)CC1
882 s	Cc1ccc(CNC(=O)C(C)n2c3ccccc3c3cnn(C)c(=O)c32)o1 (stereo not drawn)

RP-LC retention time	SMILES
1310 s	CCOc1nc2ccccc2nc1N1CCCC(C(=O)Nc2cccc(Cl)c2C)C1 (stereo not drawn)
1010 s	O=S(=O)(c1ccccc1F)N1CCc2nc(-c3ccccc3)ncc2C1
738 s	COc1ccc(/C=C\c2onc(C)c2NC(C)=O)cc1S(=O)(=O)N1CCN(c2ncccn2)CC1
948 s	CCCn1ccc2sc(C)c(C(=O)NCc3cccc(C)c3)c2c1=O
759 s	CCOC(=O)c1nc(N2CCCC(C)C2)c2ccccc2n1 (stereo not drawn)
710 s	CCCNC(=O)C1CCCN(c2ccc(SCC(=O)Nc3ccc(Br)cc3)nn2)C1 (stereo not drawn)
926 s	Cc1nc(-c2csc(S(=O)(=O)N3CCC(C(=O)NCc4ccc(Cl)cc4)CC3)c2)no1
605 s	CN(C)C[C@@H]1CN(c2ncccn2)C[C@H]1NC(=O)c1ccc(Cl)s1
1230 s	O=S(=O)(c1ccc(F)c(F)c1)N1CCc2nc(-c3ccc(Cl)cc3)ncc2C1
1100 s	Cc1ccccc1CNC(=O)c1nnc(-c2ccc(S(=O)(=O)N3CCC(C)CC3)cc2)o1
902 s	CC1CC(C)CN(c2nccn3c(=O)n(CC(=O)Nc4ccc(F)cc4F)nc23)C1 (stereo not drawn)
768 s	Cc1ccc(NC(=O)NCC(c2cccnc2)c2cn(C)c3ccccc23)c(Cl)c1 (stereo not drawn)
740 s	COc1ccc(NC(=O)C2CC(=O)N(c3ccc4c(c3)CCN4C(=O)C3CC3)C2)c(C)c1 (stereo not drawn)
647 s	O=C(CCC[C@@H]1[C@H]2CCCN3CCC[C@@H](CN1C(=O)c1ccccc1)[C@@H]23)Nc1ccc2c(c1)OCCO2
920 s	Cc1oc2ncnc(N3CCCC(C(=O)NCc4cccc(Cl)c4)C3)c2c1C (stereo not drawn)
825 s	CCNC(=O)C1CCN(c2nc3ccc(-c4ccc(OC)cc4)nc3s2)CC1
806 s	COc1ccccc1C(=O)N1CCc2c(c(-c3nnc(-c4ccccc4Cl)o3)nn2C)C1
653 s	Fc1ccc(-c2noc(CCc3nnc4ccc(N5CCN(C6CCCCC6)CC5)nn34)n2)cc1
1020 s	O=C1Nc2cc(C(=O)N3CCC(Cc4ccccc4)CC3)ccc2N2CCCCC12 (stereo not drawn)
